T1: human CD37 (human, UniProt P11049 1-281, limits assumed)
T1 sequence (looked up): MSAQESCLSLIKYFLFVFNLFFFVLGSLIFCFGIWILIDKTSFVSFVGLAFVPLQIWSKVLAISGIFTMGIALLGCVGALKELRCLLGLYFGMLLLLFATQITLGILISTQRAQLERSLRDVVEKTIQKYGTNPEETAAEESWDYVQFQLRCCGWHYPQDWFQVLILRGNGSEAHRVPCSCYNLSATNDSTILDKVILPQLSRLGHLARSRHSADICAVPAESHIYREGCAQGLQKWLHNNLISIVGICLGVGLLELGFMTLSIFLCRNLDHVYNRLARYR

T2: mouse CD37 (mouse, UniProt Q61470 1-281, limits assumed)
T2 sequence (looked up): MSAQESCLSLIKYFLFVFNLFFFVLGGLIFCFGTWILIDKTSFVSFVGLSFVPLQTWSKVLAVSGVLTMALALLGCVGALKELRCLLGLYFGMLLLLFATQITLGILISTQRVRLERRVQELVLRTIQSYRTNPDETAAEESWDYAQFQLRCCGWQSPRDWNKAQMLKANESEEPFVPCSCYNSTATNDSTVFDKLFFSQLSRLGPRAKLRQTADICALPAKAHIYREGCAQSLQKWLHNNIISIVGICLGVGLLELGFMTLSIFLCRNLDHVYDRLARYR


How the values were obtained:
[1] = test system: Raji Burkitt lymphoma cells; assay: Apoptosis assay (Annexin V/PI staining, FACS) on Raji cells; assay type: cell-based; details: 48 h, A2 10 μg/ml, AnnexinV positive cells corrected for background
[2] = test system: Ramos Burkitt lymphoma cells; assay: Apoptosis assay (Annexin V/PI staining, FACS) on Ramos cells; assay type: cell-based, human; details: 48 h, A2 10 μg/ml, AnnexinV positive cells corrected for background
DoHH2 tumor cells = assay: Example 2: DoHH2 human xenograft tumor model, A2 with bendamustine; assay type: in vivo, CB-17 SCID mice; details: A2 10 mg/kg twice weekly, bendamustine 10 mg/kg twice weekly ip; compared to control treated animals
[3] = test system: human follicular lymphoma (DOHH2); assay: Example 4: DOHH2 follicular lymphoma xenograft, A2 with bendamustine, tumor volume; assay type: in vivo, C.B-17 scid mice
[4] = Example 4: body weight as indicator of tolerability; details: for tolerability / body weight loss (in words): A2 10 mg/kg, bendamustine 20 mg/kg i.p.
human CD37 = target: T1, human CD37; assay: not described (statement in the discussion of Example 3)
mouse CD37 = target: T2, mouse CD37; assay: as above
[5] = bendamustine concentration 400 μM

Molecule	% apoptotic cells ([1]; bendamustine concentration 200 μM) [%]	% apoptotic cells [1, 5] [%]	% apoptotic cells ([2]; bendamustine concentration 100 μM) [%]	% apoptotic cells [2, 5] [%]	anti-tumor effect (tumor growth retardation) (DoHH2 tumor cells)	inhibition of DOHH2 tumor growth (in words) ([3]; A2 10 mg/kg, bendamustine 20 mg/kg i.p.)	CR [x/7] ([3]; complete tumor regressions, day 16)	tumors growth inhibited (of 7 treated) ([3]; day 16) [tumors]	TGI [%] ([3]; median, day 16, vs vehicle control, A2 10 mg/kg i.p. d1,d5,d8,d12,d15, bendamustine 20 mg/kg i.p. two injections)	PR [x/7] ([3]; partial tumor regressions, day 16)	tolerability / body weight loss (in words) [4]	tolerability / body weight loss (in words) ([4]; listed as Bendamustine)	body weight loss in median within the first week of treatment ([4]; bendamustine i.p. day 2 and 6)	binding result (human CD37)	binding result (mouse CD37)
Cn1c(CCCC(=O)O)nc2cc(N(CCCl)CCCl)ccc21 [bendamustine, 4-[5-[Bis(2-chloroethyl)amino]-1-methylbenzimidazol-2-yl]butanoic acid, reference compound]	10	13	19	35	significant anti-tumor effect	significant inhibition of tumor growth	0	7	57	0	moderately tolerated	resulted in weight loss	up to 7.9%	–	–
Antibody A2 (antibody, human IgG1, kappa, V domains shown, also called mAb A2; MAb A2) VH: AVQLQQSGPELEKPGASVKISCKASGYSFTGYNMNWVKQNNGKSLEWIGNIDPYYGGTTYNRKFKGKATLTVDKSSSTAYMQLKSLTSEDSAVYYCARSVGPMDYWGQGTSVTVSS VL: DIQMTQSPASLSASVGETVTITCRTSENVYSYLAWYQQKQGKSPQLLVSFAKTLAEGVPSRFSGSGSGTQFSLKISSLQPEDSGSYFCQHHSDNPWTFGGGTELEIKR	–	–	–	–	–	–	–	–	–	–	–	–	–	binds	no binding
